Assay results from US20250319067A1, “Improved Pharmacokinetics of Tryptamine Prodrugs” (Reunion Neuroscience, Inc., priority 2023, published 2025).

Assays:
[1] = GLP 14-day extended single SC dose toxicity study in rats; details: rat; for NOAEL at 14 days: in vivo
Method: (§1) In a GLP 14-day extended single SC dose toxicity study in rats, doses of 0 (PBS), 10, 25 and 75 mg/kg were evaluated. Animals were necropsied on Study Day 2 and Day 14 (also referred to as Recovery Day 13) post-dosing.
(§2) A non-GLP dose range study was performed in the dog in order to determine an MTD. Single SC doses of 7.5, 15 and 20 mg/kg were evaluated.

rats = experiment: as above
Method: as §1, §2

rabbit hepatocytes = experiment: Hepatocyte intrinsic clearance, rabbit; type: in vitro ADME
From the text: (§3) In human, rat, rabbit, dog and monkey hepatocytes, the metabolite profile of RE104 was qualitatively similar across these species with only minor differences.

dog hepatocytes = experiment: Hepatocyte intrinsic clearance, dog; type: in vitro ADME
From the text: as §3

[2] = Prodrug cleavage in mouse plasma; type: in vitro ADME; details: 37° C.
Method: (§4) Mean values from 3 replicate assays are reported. See the Supplemental Methods for additional details.
(§5) Triplicate aliquots (50 μL) of each spiked plasma solution were immediately added to 200 μL of ice-cold methanol/acetonitrile solution (50:50 v/v) containing the internal standards to generate time zero samples. Spiked plasma solutions were incubated at 37° C. in an orbital shaker set to 75 rpm, and 50-μL samples were taken in triplicate after 30 minutes and 1, 2, and 4 hours of incubation. Each sample was immediately added to 200 μL ofice-cold methanol/acetonitrile solution containing the internal standard(s) to terminate the reaction. Samples were mixed by vortex and then stored at −80° C. until analysis.
(§6) Calibration standards were prepared in plasma for each species and analyzed in batches by LC-MS/MS. Sample batches consisted of 3 replicates of a system suitability standard (containing the analyte and internal standard), the appropriate calibration standards in ascending order including a blank sample without internal standard, a zero sample (with internal standard), and at least 6 nonzero standards and the assay samples, followed by the 3 replicates of the system suitability sample.

[3] = Prodrug cleavage in dog plasma; type: in vitro ADME; details: after 4 hours of incubation
Method: as §4, §5, §6

[4] = Prodrug cleavage in human plasma; type: in vitro ADME; details: human plasma, 37° C.
Method: as §4, §5, §6

[5] = Metabolite profiling in monkey plasma after SC RE104; type: in vivo, cynomolgus monkey; details: pooled plasma 0 to 12 hours post dose, SC 0.5 mg/kg RE104
From the text: Blood samples were centrifuged to obtain plasma.

healthy females = experiment: Phase 1 FIH study: Mystical Experience Questionnaire (MEQ30); type: in vivo, human
Method: The study was a double-blind, randomized, placebo-controlled Phase 1 single ascending dose study in up to 6 cohorts in healthy females. Eligibility was assessed during a screening period of up to 28 days prior to enrollment. For the treatment period, subjects were admitted to the clinical research unit (CRU) one day prior to the dosing (Day −1). On Day 1, all subjects will received the assigned SC dose of RE104 HCl or placebo in a fed state (after domiciling overnight and consuming a planned evening meal on Day −1 and morning meal on Day 1 while at the CRU). Subjects were allowed to select snacks from a planned menu from 4 hours following dosing. Subjects were discharged from the clinic on Day 2 (−24 hours post-dose) after all required study procedures were completed and if deemed medically fit. Subjects returned to the clinic on Day 10 (±2 days) for a follow up visit.
The Mystical Experience Questionnaire (MEQ30) is a validated questionnaire that assesses individual episodes of a mystical experience produced by classic hallucinogens (Barrett et al. 2015). The validated MEQ30 uses thirty questions across 4 areas of experience: (i) Mystical (including items concerning internal unity, external unity, noetic quality, and sacredness); (ii) Positive mood; (iii) Transcendence of time and space; and (iv) Ineffability. The subjects will be asked to rate each item of the MEQ30 on a 6-point scale. FIG. 3 sets out the revised MEQ30 that was used.

[6] = biological target: human recombinant 5-HT2A receptors (Homo sapiens, UniProt P28223); experiment: 5-HT2A cellular agonist effect assay (IP1, HTRF); type: cell-based; set-up: host or cells: HEK-293
Method: Activation was calculated as a percentage of the response to the positive control (10 μM 5-HT).
EC50 and IC50 values were determined by nonlinear regression analysis of the concentration-response curves generated with mean replicate values using Hill equation curve fitting. For all receptor pharmacology assays, data were analyzed with software developed at Cerep (Hill software, Celle-Lévescault, France) and validated by comparison with data generated by the commercial software SigmaPlot® 4.0 for Windows®(01997 by SPSS Inc).

[7] = biological target: human recombinant 5-HT2B receptors (Homo sapiens, UniProt P41595); experiment: 5-HT2B agonist radioligand binding assay ([125I]DOI)
Sequence of human recombinant 5-HT2B receptors (P41595 whole entry): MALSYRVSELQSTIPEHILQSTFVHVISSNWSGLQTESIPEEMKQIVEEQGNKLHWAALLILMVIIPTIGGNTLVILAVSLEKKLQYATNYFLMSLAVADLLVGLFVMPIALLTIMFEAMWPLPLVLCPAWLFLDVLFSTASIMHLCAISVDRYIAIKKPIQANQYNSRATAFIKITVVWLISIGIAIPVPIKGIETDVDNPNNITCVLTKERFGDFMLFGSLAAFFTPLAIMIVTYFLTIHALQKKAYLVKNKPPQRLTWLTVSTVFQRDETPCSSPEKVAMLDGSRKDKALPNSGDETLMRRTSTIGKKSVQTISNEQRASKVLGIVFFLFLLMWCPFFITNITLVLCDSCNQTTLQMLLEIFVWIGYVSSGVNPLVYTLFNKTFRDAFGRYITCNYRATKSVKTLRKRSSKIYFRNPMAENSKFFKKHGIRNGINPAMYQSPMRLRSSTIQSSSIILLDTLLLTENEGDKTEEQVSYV
Method: Increasing concentrations of RE104 were incubated with 0.2 nM [^125I]DOI in CHO cell cultures expressing human recombinant 5-HT2B receptors.
Radioligand concentration was measured by scintillation counting; compound binding was calculated as percent inhibition of the binding of [^125I]DOI. In agonist activity assays, test concentrations of RE104 were incubated with HEK-293 cells expressing human recombinant 5-HT2A receptors; IP1 production was detected using homogeneous time-resolved fluorescence. Activation was calculated as a percentage of the response to the positive control (10 μM 5-HT).
Inhibition constants were calculated by using the Cheng-Prusoff equation Ki=IC50/(1+L/KD), where L=radioligand concentration and KD=radioligand affinity for the receptor (determined with a Scatchard plot). In the functional activity assay test concentrations of RE104 were 10 nM, 30 nM, 100 nM, 300 nM, 1 μM, 3 μM, 10 μM, and 30 μM. EC50 and IC50 values were determined by nonlinear regression analysis of the concentration-response curves generated with mean replicate values using Hill equation curve fitting.

Sequence of human recombinant 5-HT2A receptors (P28223 whole entry): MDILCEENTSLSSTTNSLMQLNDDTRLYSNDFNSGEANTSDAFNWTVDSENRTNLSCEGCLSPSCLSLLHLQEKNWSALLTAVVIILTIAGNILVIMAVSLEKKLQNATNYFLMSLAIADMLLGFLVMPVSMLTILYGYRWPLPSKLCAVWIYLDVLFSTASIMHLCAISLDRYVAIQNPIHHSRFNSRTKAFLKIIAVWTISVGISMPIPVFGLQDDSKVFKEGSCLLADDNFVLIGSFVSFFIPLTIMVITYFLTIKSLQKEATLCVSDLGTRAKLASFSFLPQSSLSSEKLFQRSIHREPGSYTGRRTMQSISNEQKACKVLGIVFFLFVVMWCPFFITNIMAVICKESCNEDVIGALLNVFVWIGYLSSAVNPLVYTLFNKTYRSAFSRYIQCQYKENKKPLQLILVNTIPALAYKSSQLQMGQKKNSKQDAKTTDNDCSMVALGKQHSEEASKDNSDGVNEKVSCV

Compound: CC(C)N(CCc1c[nH]c2cccc(OC(=O)CCCC(=O)O)c12)C(C)C [RE104]
- NOAEL at 14 days ([1]; Sprague Dawley, sc): 10 mg/kg
- Cmax ([1]; Sprague Dawley, plasma, sc, 10 mg/kg): 0.751 ng/mL
- NOAEL at 14 days ([1]; both, Sprague Dawley, sc): 10 mg/kg
- NOAEL at 14 days ([1]; female, subcutaneous): 10 mg/kg
- human equivalent dose [HED] of the 10 mg/kg rat dose (rats; expressed as zwitterion, 60 kg human, BSA conversion): approximately 97 mg
- low adverse effect level (LOAEL) (rats; male rats): 10 mg/kg
- 1/10 of HED (rats; rat): 0.16 mg/kg
- 1/10 of Human BSA dose (rats; rat): 9.7 mg
- Human BSA dose (rats; rat): 60 mg/m^2
- fold HED higher than proposed starting dose (rats; rat HED vs 5 mg (zwitterion)): approximately 19 fold
- fold HED higher than maximum proposed dose (rats; rat HED vs 48 mg (zwitterion)): ~2 fold
- HED (rats; rat NOAEL, BSA conversion factors): 1.6 mg/kg
- Human BSA dose (rats; rat, based on a BSA of 1.62 m^2): 97.2 mg
- in vitro intrinsic clearance (CLint) (rabbit hepatocytes): 4.88 mL/hr/106 cells
- in vitro intrinsic clearance (CLint) (dog hepatocytes): 0.87 mL/hr/106 cells
- completeness of conversion [2]: > 95%
- time of conversion to 4-OH-DiPT [2]: < 30 min
- prodrug remaining [3]: 39%
- completeness of conversion [4]: > 95%
- time of conversion to 4-OH-DiPT [4]: < 30 min
- share of the total peak area [5]: 71.1%
- Participants with MEQ total score ≥60% (healthy females; RE104 5.5 mg, n 6): 0%
- Participants with MEQ total score ≥60% (healthy females; RE104 11 mg, n 6): 50%
- Participants with MEQ total score ≥60% (healthy females; RE104 22 mg, n 6): 16.7%
- Participants with MEQ total score ≥60% (healthy females; RE104 33 mg, n 9): 66.7%
- Participants with MEQ total score ≥60% (healthy females; RE104 38 mg, n 6): 83.3%
- Participants with MEQ total score ≥60% (healthy females; RE104 44 mg, n 3): 100%
- EC50 [6]: > 30000 nM
- IC50 [7]: 740 nM
- Ki ([7]; read-out: binding Ki at the 5-HT2B receptor, CHO cells): 1800 nM
